Reference: a melting point compilation (Tetko et al.)

Structure (SMILES) | melting point
O=[N+]([O-])c1cc(-c2ccc(O)cc2)ccc1O | 182 °C
Cc1nc(-c2ccc(C(F)(F)F)cc2)sc1CO | 119 to 122 °C
CC(C)(C)OC(=O)NC(Cc1ccc(OCc2ccccc2)cc1)C(=O)O (stereo not given) | 109 °C
CC(C)C1=CCC2C(=C1)CCC1C(C)(C(=O)O)CCCC21C (stereo not given) | 150 °C
CCCCc1cc2c(O)c(C(=O)OC)cnc2cc1OCc1ccccc1 | 288 °C
Cc1cc(C)c(CC(=O)c2oc3ccccc3c2NC(=O)Cc2ccccc2)c(C)c1 | 156 to 157 °C
CC(=O)N(c1ccc(C)cc1)c1nc(CCl)cs1 | 124 to 125 °C
CC(=O)NCCS | 6.5 °C
O=C1Nc2ccccc2C=NC2CCCCC2N=Cc2ccccc2NC1=O (stereo not given) | 223 to 225 °C
Brc1c(Br)c(Br)c(Br)c(Br)c1Br | 326 °C
O=C(O)CC=Cc1ccccc1 | 87 °C
CSc1ccc(N)cc1C(F)(F)F | 57 °C
OCC1OC(O)CC(O)C1O (stereo not given) | 150 °C
O=C(Nc1ccc(Cl)cc1)c1cc(Br)ccc1O | 240 °C
CSc1sc(C(=O)O)c(-c2ccc(Cl)cc2)c1C#N | 241 to 243 °C
Nc1ccc(C=Cc2cccc(N)c2)cc1 | 109 °C
CC(=O)OC1CC2C(C)C(=O)C3(C(OC(C)=O)CC4C5(C)CCCC4(C(OC(C)=O)OC5)C13)C2OC(C)=O (stereo not given) | 104 °C
CCCCCCCCCCCCSCCCCCCCCCCCC | 36 to 43 °C
O=[N+]([O-])c1ccc(Sc2ccc(N=C=S)cc2)cc1 | 124 to 126 °C
COc1ccc(C=C(S)C(=O)O)cc1 | 140 °C
CCOC(O)C(OC(C)=O)C(OC(C)=O)C(OC(C)=O)C(COC(C)=O)OC(C)=O (stereo not given) | 132 °C
N#Cc1c(F)cccc1Oc1ccccc1 | 92 to 96 °C
NNc1nc(-c2ccccc2)c2c(N)n[nH]c2n1 | 241 to 244 °C
c1ccc2nonc2c1 | 54 °C
Cc1c(C)c(C)c2c(c1C)C(=O)CC2C(=O)O (stereo not given) | 214 °C

Structure (SMILES) | melting point
O=C(Oc1c(F)c(F)c(F)c(F)c1F)c1ccc(OC2CCOCC2)nc1 | 114 to 118 °C
O=C(CSc1nc(=O)[nH]c2c1CCCC2)c1ccccc1 | 250 to 255 °C
S=C=Nc1ccc(Br)cc1Cl | 46 °C
O=C1OCCN1N=Cc1ccc([N+](=O)[O-])o1 | 255 °C
NNC(=O)c1ccc(OCc2ccccc2)cc1 | 140 °C
CSc1nc(N)nc(-c2cnccn2)n1 | 215 °C
Brc1ccc2c(c1)Oc1ccc(Br)cc1O2 | 193 °C
CC(C)COC(=O)c1ccc(O)cc1 | 76 °C
FC(F)(F)c1ccc(Cl)cc1Cl | -26 °C
CC(C)(C)OC(=O)N1CC(=O)CC1C(=O)O (stereo not given) | 155 to 156 °C
O=C=Nc1ccc2c(c1)OCCOCCOCCOCCOCCO2 | 61 to 63 °C
O=C(O)CCc1ccccc1Br | 96 to 98 °C
Cc1cc(Cl)ccc1C(=O)O | 172 to 173 °C
O=Cc1cccc(-c2nccs2)c1 | 67 to 68 °C
COC(=O)C(Br)C(Br)c1cccc(C(Br)C(Br)C(=O)OC)c1 (stereo not given) | 145 °C
NC(Cc1ccccc1)=NO | 66 to 67 °C
COc1cc(Oc2ccc(Cl)cc2Cl)ccc1[N+](=O)[O-] | 114 °C
CCN(CCO)c1ccc(N=Nc2ccc([N+](=O)[O-])cc2Cl)cc1 | 133 °C
Clc1ncnc2sc3c(c12)CCCCC3 | 64 to 65 °C
COc1ccc2c(c1)CC2C(=O)O (stereo not given) | 83 to 89 °C
COc1ccc(NC(=O)C(C)=O)cc1 | 127 °C
O=[N+]([O-])c1ccc(Br)c([N+](=O)[O-])c1 | 72 °C
CCOC(=O)Nc1ccc(Cl)cc1 | 64 to 66 °C
CCCN(CCCl)c1c([N+](=O)[O-])cc(C(F)(F)F)cc1[N+](=O)[O-] | 42 °C
O=C1C2=C(C(=O)c3ccccc31)C1(CC1)C21CC1 | 103 °C

Structure (SMILES) | melting point
O=C(O)COc1ccc(I)cc1 | 157 °C
COc1ccc(C#N)c(OC)c1OC | 56 °C
CCCCCCCCNC(C)C(O)c1ccc(SC(C)C)cc1 (stereo not given) | 62.5 °C
COC(=O)c1ccccc1C(=O)O | 83 °C
N[C@@H]1CCCC[C@H]1N | 40 to 45 °C
CC(=O)Oc1ccc(N)cc1 | 74 °C
Oc1ccc(Cl)cc1Br | 33 °C
O=c1[nH]c(-c2ccccc2)cc2ccncc12 | 239 °C
Cc1nc(NS(=O)(=O)c2ccc(N)cc2)oc1C | 193 °C
Cc1nc(-c2ccc(C(F)(F)F)cc2)sc1C#N | 155 to 156 °C
C=O | -92 °C
CCC1(C)CC(=O)NC1=O (stereo not given) | 65 °C
Cc1c(F)cccc1[N+](=O)[O-] | 7 °C
O=C(O)C=Cc1ccc(Sc2ccccn2)c([N+](=O)[O-])c1 | 177 to 178 °C
Cc1c(O)cccc1C(=O)O | 144 °C
COC(=O)[C@H](CSCc1ccccc1)NC(C)=O | 67 to 73 °C
CN1CCC23CCCCC2C1Cc1ccc(O)cc13 (stereo not given) | 198 °C
CCOC(=O)CN1CCN(C(=O)C=Cc2cc(OC)c(OC)c(OC)c2)CC1 | 96 °C
Nc1ccccc1/C=C/c1nc2ccccc2[nH]1 | 213 °C
COc1cc(C(c2c(O)cc(C)oc2=O)c2c(O)cc(C)oc2=O)ccc1O | 205 to 208 °C
FC(F)(F)c1cccc(Br)n1 | 49.5 °C
NNC(=O)c1cccs1 | 139 °C
CC(Nc1ccc(Br)cn1)=C(C#N)C(=O)c1ccccc1 | 179 to 181 °C
O=C(Cc1cc(Cl)c([N+](=O)[O-])cc1[N+](=O)[O-])c1ccccc1 | 133 °C
CC1CCC2(C(=O)O)CCC3(C)C(=CCC4C5(C)CCC(O)C(C)(C)C5CCC43C)C2C1C (stereo not given) | 284 °C

Structure (SMILES) | melting point
O=C(NC(=S)Nc1ccccc1)c1ccccc1 | 159 to 161 °C
O=C(Oc1c(F)c(F)c(F)c(F)c1F)c1cc(C(F)(F)F)ccc1N1CCOCC1 | 91 to 93 °C
NC(=O)c1c(F)ccc(F)c1F | 117 °C
CC1(c2ccccc2)CC(C(=NOCC(=O)c2ccccc2)c2cc3ccccc3o2)C1 (stereo not given) | 154 to 155 °C
C=CCn1c(=O)oc(=O)c2ccccc21 | 111 to 113 °C
CC1(C)CC(=O)C(=NNc2ccc(Br)cc2)C(=O)C1 | 204 °C
Cc1ccc(S(=O)(=O)C#N)cc1 | 48 °C
O=C(O)c1ccc(-n2ccnc2)cc1 | 309 to 311 °C
Cc1cc(Cc2cc(C)cc(C3(C)CCCCC3)c2O)c(O)c(C2(C)CCCCC2)c1 | 135 °C
C1=NCC(c2ccc(C3CN=CC=N3)cc2)N=C1 (stereo not given) | 262 °C
Cc1cc(NS(=O)(=O)c2ccc(N)cc2)nc(C)n1 | 243 °C
C[C@H]1C(=O)[C@H]2[C@@H](C[C@H]1C#N)C2(C)C | 54.5 °C
N#CCCNCC(=O)O | 188 to 193 °C
CCOC(=O)CC1Sc2ccccc2NC1=S (stereo not given) | 106 to 108 °C
CCOC(=O)N1CCNC(c2ccccc2)C1 (stereo not given) | 63 °C
N#CCc1ccc(OC(F)(F)F)cc1 | 29 °C
CCCCCCCCCCOc1ccccc1OCCCCCCCCCC | 39 to 42 °C
O=C1C=CC(=O)C(c2ccccc2)=C1 | 114 °C
C=CCSc1sc(C(=O)OCC)c2c1C(=O)CCC2 | 57 to 60 °C
COCc1cc(O)nc(SC)n1 | 195 to 196 °C
Clc1cccc(CBr)c1Cl | 29 to 32 °C
O=S(=O)(CCCl)c1ccccc1 | 54 °C
O=C1C(=Cc2ccccc2)CCCC1=Cc1ccccc1 | 118 °C
COc1ccc(CO)cc1O | 136 °C
CC(=O)c1nn(-c2ccccc2[N+](=O)[O-])c(=NC(=O)c2ccccc2)s1 | 204 °C

Structure (SMILES) | melting point
Ic1cccc(Cn2cccn2)c1 | 51 to 54 °C
CN1CCN(C2=Nc3ccccc3Oc3ccc(Cl)cc32)CC1 | 110 °C
CC(CCC(=O)O)C1CCC2C3C=CC4CCCCC4(C)C3CCC12C (stereo not given) | 152 to 160 °C
CC(C)(C)OC(=O)N1CCCC(Oc2ccccc2[N+](=O)[O-])C1 (stereo not given) | 74 to 75 °C
O=C(O)[C@@H](O)CCN1C(=O)c2ccccc2C1=O | 157 to 159 °C
CCCCCCCCC=CCCCCCCCC(=O)OCC(COC(=O)CCCCCCCC=CCCCCCCCC)OC(=O)CCCCCCCC=CCCCCCCCC (stereo not given) | -32 °C
Nc1ccc2[nH]c(C(F)(F)F)nc2c1 | 188 °C
CCOC(=O)c1c(NC(=O)CN(CC)CC)sc2c1CCCC2 | 74 to 75 °C
O=c1oc(=O)c2ccccc2c2ccccc12 | 223 to 227 °C
CC(=O)OCC1OC(C#N)=CC(OC(C)=O)C1OC(C)=O (stereo not given) | 112 to 115 °C
CCC(C)(c1ccc(O)cc1)c1ccc(O)cc1 | 120 °C
CC1C(=O)C23C(O)CC4C(C)(C)CCC(O)C4(CO)C2C(O)CC1C3O (stereo not given) | 278 °C
N#C/C(=N/Nc1cccc([N+](=O)[O-])c1)c1nc(-c2ccccc2)cs1 | 215 °C
O=C(N[C@H](Cc1ccc(Cl)cc1)C(=O)O)OCC1c2ccccc2-c2ccccc21 | 147 °C
CC(C)C(C)C(C)(C)C (stereo not given) | -121 °C
Cn1c(Cl)cc(=O)n(C)c1=O | 110 °C
CCOC(=O)c1c(C)oc(NC(=O)Nc2cccc(C(F)(F)F)c2)c1C(=O)OCC | 153 to 155 °C
C=C(C)c1ccc(C)c2ccc(C=O)c-2c1 | 58 °C
CSc1nc(N)nc(C23CC4CC(CC(C4)C2)C3)n1 | 208 to 210 °C
CN1C(=C(O)Nc2ccccn2)C(=O)c2sccc2S1(=O)=O | 211 °C
N=C1NC(=O)C(=NNc2ccccc2[N+](=O)[O-])S1 | 274 °C
CNc1ccc2cc(OC)[nH]c2c1 | 165 °C
CC(C)(C)c1cc(N)cc(C(C)(C)C)c1 | 56 °C
NCCCNCCN | 10 °C
CCCCCC#CCC(=O)O | 17 °C
